Laboratory results as given in patent US20080280953A1, “Agents Used for the Treatment of Seeds” (Bayer Cropscience AG, priority 2004, published 2008).

Legend:
[1] = system: caterpillars of the fall army worm (Spodoptera frugiperda); assay: Spodoptera frugiperda test, treated soil (Example A1); type: in vivo; settings: 4 ppm in soil, cotton plant
Protocol: To prepare a suitable active compound preparation 1 part by weight of the active compound is mixed with the given amount of solvent and emulsifier and the concentrate is diluted to the desired concentration with water.
The active compound preparation is mixed with earth. The concentration given relates to the amount of active compound per unit volume soil (mg/l=ppm). The treated earth is filled into pots and planted with a cotton plant (Gossypium hirsutum). After a week infection is carried out with caterpillars of the fall army worm (Spodoptera frugiperda).
After the desired time the activity in % is determined. Here 100% means that no eating damage is visible, 0% means that eating damage on the treated plants corresponds to that of the controls.

[2] = system: white fly (Bemisia tabaci), normal sensitive strain; assay: Bemisia tabaci test (normal sensitive strain), spraying of infested cotton plants; type: in vivo; settings: 100 ppm, spray on cotton plants
Protocol: To prepare a suitable active compound preparation 1 part by weight of the active compound is mixed with the given amount of solvent and emulsifier and the concentrate is diluted to the desired concentration with water containing emulsifier.
Cotton plants (Gossypium hirsutum) that are infested with eggs, larvae and pupae of the white fly (Bemisia tabaci) are treated by, spraying with the active compound preparation at the desired concentration.
After the desired time the death rate in % is determined. Here 100% means that all animals were killed; 0% means that no animals were killed.

CN(Cc1ccc(Cl)nc1)C1=CC(=O)OC1 [Compound 84]
activity (eating damage) after 7 days [1]: 98%
Death rate in % after 14 d [2]: 100%
